Test results: PMC7591906, “pHLIP ICG for delineation of tumors and blood flow during fluorescence-guided surgery” (Scientific Reports, 2020)
Entries after “also recorded” stand apart in the source; their conditions may differ. Peptide text beside a SMILES is read from it. * marks the point of attachment. X1 = CC1(C)C(/C=C/C=C/C=C/C=C2/N(CCCCCC(=O)NCCN3C(=O)CC(*)C3=O)c3ccc4ccccc4c3C2(C)C)=[N+](CCCCS(=O)(=O)[O-])c2ccc3ccccc3c21

How the values were obtained:
progesterone receptor B = target: T1, progesterone receptor B (Homo sapiens, UniProt P06401); test: Progesterone receptor B radioligand binding assay
T1 construct: purchased Eurofins Panlabs, Inc
T1 sequence (P06401 1-933): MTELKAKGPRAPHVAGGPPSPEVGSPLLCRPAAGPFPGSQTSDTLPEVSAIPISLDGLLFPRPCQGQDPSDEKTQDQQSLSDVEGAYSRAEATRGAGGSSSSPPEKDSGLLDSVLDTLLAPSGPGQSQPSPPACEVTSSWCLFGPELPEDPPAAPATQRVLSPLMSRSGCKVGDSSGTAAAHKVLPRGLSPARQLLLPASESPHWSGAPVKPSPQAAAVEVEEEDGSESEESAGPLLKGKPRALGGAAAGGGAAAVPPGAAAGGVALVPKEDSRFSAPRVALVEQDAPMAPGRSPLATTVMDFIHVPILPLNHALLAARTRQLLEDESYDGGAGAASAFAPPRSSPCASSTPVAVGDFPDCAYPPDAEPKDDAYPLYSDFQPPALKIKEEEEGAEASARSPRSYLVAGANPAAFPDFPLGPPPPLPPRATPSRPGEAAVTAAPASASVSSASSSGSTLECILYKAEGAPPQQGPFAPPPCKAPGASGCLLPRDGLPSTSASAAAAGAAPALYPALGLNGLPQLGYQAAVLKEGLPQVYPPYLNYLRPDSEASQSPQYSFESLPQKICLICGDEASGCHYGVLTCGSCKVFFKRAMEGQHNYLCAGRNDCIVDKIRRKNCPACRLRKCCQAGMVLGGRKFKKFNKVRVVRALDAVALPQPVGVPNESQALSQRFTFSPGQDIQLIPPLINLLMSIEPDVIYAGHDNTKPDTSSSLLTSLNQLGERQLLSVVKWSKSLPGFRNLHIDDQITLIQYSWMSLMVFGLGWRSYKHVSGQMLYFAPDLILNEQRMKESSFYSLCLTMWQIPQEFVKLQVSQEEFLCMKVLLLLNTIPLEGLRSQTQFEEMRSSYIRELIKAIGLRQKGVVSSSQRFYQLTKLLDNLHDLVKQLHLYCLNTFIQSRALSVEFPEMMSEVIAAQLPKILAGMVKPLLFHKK
Procedure: The pHLIP ICG enzyme binding assays were performed by Eurofins Panlabs, Inc. according to standard assay protocols. The following enzymes were used in the binding assay with 2 µM of pHLIP ICG : acetyl cholinesterase; peptidase (angiotensin converting enzyme); ATPase (Na^+/K^+, pig heart); CTSG peptidase (cathepsin G); cyclooxygenases COX-1 and COX-2; monoamine oxidases MAO-A and MAO-B; phosphodiesterases PDE3 and PDE4D2; protein tyrosine kinase (insulin receptor); protein tyrosine kinase (LCK); protein serine/threonine kinase (PKC, non-selective); adenosine A1 and A2A; adenosine transporter; adrenergic α1A, α1B, α1D, α2A, α2B, β1 and β2; norepinephrine transporter (NET); androgen (testosterone); angiotensin AT1; bradykinin B2; calcium channels L-type (benzothiazepine, dihydropyridine, phenylalkylamine); calcium channel N-type; cannabinoid CB1 and CB2; chemokine CCR1; cholecystokinin CCK1 (CCKA) and CCK2 (CCKB); dopamine D1, D2L and D2S; dopamine transporter (DAT); endothelin ETA; estrogen ERα; GABA transporter; GABAAs (flunitrazepam, central; Ro-15-1788, hippocampus and chloride channel, TBOB); glucocorticoid; glutamate (AMPA, kainate, agonism NMDA, glycine NMDA, phencyclidine NMDA, polyamine NMDA, and mGlu5 metabotropic); glycine (strychnine-sensitive); histamine H1 and H2; chemokine CXCR2 (IL-8RB); cysteinyl leukotriene (CysLT1); melanocortin MC1 and MC4; muscarinic M1, M2, M3, and M4; tachykinin NK1; neuropeptide Y Y1; nicotinic acetylcholine α1 (bungarotoxin) and α3β4; opiate δ1 (OP1, DOP), κ (OP2, KOP), and μ (OP3, MOP); platelet activating factor (PAF); potassium channels (KATP and hERG); PPARγ; serotonin (5-hydroxytryptamine) 5-HT1A, 5-HT1B, 5-HT2A, 5-HT2B, 5-HT2C, and 5-HT3; serotonin transporter (SERT); sodium channel (site 2); vasopressin V1A; progesterone (PR-B). The most significant inhibitory effect of pHLIP ICG was observed on progesterone B and was followed by an additional study to identify IC50 values, which were determined by a non-linear least square regression analysis using MathIQTM (ID Business Solutions Ltd., UK). The Ki values were calculated by the equation from Cheng and Prusoff [Cheng, Y., Prusoff, W.H., Biochem. Pharmacol. 22:3099-3108, 1973] using the observed IC50 of pHLIP ICG , the concentration of radioligand employed in the assay, and the historical values for the KD of the ligand (Eurofins Panlabs data). The Hill coefficient (nH), defining the slope of the competitive binding curve, was calculated using MathIQTM. The IC50, Ki, and nH values were established for pHLIP ICG and compared to the known progesterone agonist, R-2050 (Figure S3).
Figure SI,3. […]

[1] = system: Salmonella typhimurium strains (TA1535, TA1537, TA98, TA100 and TA102); test: In vitro bacterial reverse mutation test; format: cell-based; conditions: up to 5000 µg/plate, with and without S9 mix
Procedure: The objective of this study performed at CRL was to determine the potential genotoxicity of pHLIP ICG using the bacterial reverse mutation test.
Salmonella typhimurium strains (TA1535, TA1537, TA98, TA100 and TA102) were treated with pHLIP ICG at a range of concentrations up to 5000 µg/plate (the standard limit dose for this assay), in the presence and absence of a supplemented rat liver fraction (S9 mix), using the plate incorporation version of the bacterial reverse mutation test.
Bacteria were incubated with standard positive controls, and the response of the various bacterial strains to these agents confirmed the sensitivity of the test system and the activity of the S9 mix.

[2] = Imaging of blood vessels in mice; format: in vivo, athymic female nude mice; conditions: 2.5 nmol single tail vein injection, NIR imaging of leg and ear, five animals
Procedure: Single tail vein administrations of 2.5 nmol of ICG-Cys or pHLIP ICG in sterile PBS or PBS with 5% DMSO or 5% Ethanol (vol:vol) (volume of the injection was 100 μl) were given to athymic female nude mice (strain Hsd Athymic Nude-Foxn1nu) ranging in age from 5 to 6 weeks (obtained from Envigo RMS Inc). Mice were under gas anesthesia, and imaging of mouse leg and ear was performed immediately and at different time points (from 5 min till 120 min) after administration of ICG-Cys or pHLIP ICG using the Stryker 1558 AIM clinical imaging system with L10 AIM Light Source, 1588 AIM Camera and a 10 mm scope and a Novadaq imaging system. Five animals per construct were used in the study.

CC(C)C[C@H](NC(=O)[C@H](Cc1ccc(O)cc1)NC(=O)[C@H](C)NC(=O)[C@H](CCCNC(=N)N)NC(=O)[C@H](Cc1c[nH]c2ccccc12)NC(=O)[C@@H]1CCCN1C(=O)[C@H](CC(N)=O)NC(=O)[C@H](CCC(N)=O)NC(=O)[C@H](CC(=O)O)NC(=O)[C@H](CC(=O)O)NC(=O)[C@H](CSC1CC(=O)N(CCNC(=O)CCCCCN2/C(=C/C=C/C=C/C=C/C3=[N+](CCCCS(=O)(=O)[O-])c4ccc5ccccc5c4C3(C)C)C(C)(C)c3c2ccc2ccccc32)C1=O)NC(=O)[C@H](C)N)C(=O)N[C@@H](CC(=O)O)C(=O)N[C@@H](CC(C)C)C(=O)N[C@@H](CC(C)C)C(=O)N[C@@H](Cc1ccccc1)C(=O)N1CCC[C@H]1C(=O)N[C@H](C(=O)N[C@@H](CC(=O)O)C(=O)N[C@H](C(=O)N[C@@H](CC(C)C)C(=O)N[C@@H](CC(C)C)C(=O)N[C@@H](CC(C)C)C(=O)N[C@@H](CC(=O)O)C(=O)N[C@@H](CC(C)C)C(=O)N[C@@H](CC(C)C)C(=O)N[C@@H](Cc1c[nH]c2ccccc12)C(=O)N[C@@H](C)C(=O)O)[C@@H](C)O)[C@@H](C)O (some centres unmarked) [pHLIP ICG] (H-AC(X1)DDQNPWRAYLDLLFPTDTLLLDLLWA-OH)
IC50 (progesterone receptor B): 640 nM | Ki (progesterone receptor B): 510 nM | Toxicity to the bacteria [1]: non-toxic to the bacteria at the levels tested | Mutagenicity, revertant colonies ([1]; plate incorporation): did not show any evidence of genotoxic activity; also recorded: negative for the induction of mutagenicity | Time for which blood vessels are clearly revealed [2]: up to 2 h
